# Measured values from US20080313751A1, “Method by Using Human or Mice-Isg12 to Develop and Prepare Drugs and Single Nucleotide Polymorphism in the Isg12 Gene for Diagnostic Use” (priority 2005, published 2008).
# Tested on: NR4A1
# Test: Subcellular (cytosol/nucleus) distribution of NR4A1 with overexpressed ISG12
# Format: cell-based, human
# Conditions: EGFP-tagged NR4A1 and myc-tagged ISG12 overexpressed; data not shown
# Source text: In order to quantify the effect of ISG12 on the cellular localization of NR4A1, the inventors analyzed the distribution of NR4A1 between the cytosol and the nucleus by separating sub-cellular fractions of 293 cells in which EGFP-tagged NR4A1 was overexpressed in the absence or presence of myc-tagged ISG12. In the presence of ISG12 20.8±7.4% (average±SD from 4 experiments; p<0.05) more NR4A1 was found in the cytosol as in the absence of ISG12. […] A representative example is given (n=3).
# When the same experiments were performed with an EGFP-tagged NR4A1 construct (AA248-580) that cannot be exported from the nucleus^24 no influence of ISG12 on subcellular distribution of that construct was seen (FIG. 5). Similarly, the effect of ISG12 on full length NR4A1 was impaired in the presence of leptomycin B that inhibits nuclear export (data not shown).
# Human embryonic kidney 293 cells were grown in 6-wells to sub-confluence and then transfected with EGFP-NR4A1 and mycISG12 together or separately. Cell fractionation was performed 30 hours after transfection, using MS buffer (210 mM mannitol, 70 mM sucrose, 5 mM Tris-HCl, pH 7.5 and 1 mM EDTA) containing 1% protease inhibitor cocktail. After homogenizing the cells with a 27 gauge needle 10 times, samples were spun at 1300×g for 10 minutes at 4° C. to pellet the nuclei. […]
structure (smiles),measurement,value
CCC(=C/[C@H](C)C/C=C/C(C)=C/[C@@H](C)C(=O)[C@@H](C)[C@H](O)[C@@H](C)C/C(C)=C/C(=O)O)/C=C/[C@@H]1OC(=O)C=C[C@@H]1C [leptomycin B],effect of ISG12 on full length NR4A1 (nuclear export / subcellular distribution) in the presence of the substance,impaired
